Earlier results as cited in patent publication US20130210878A1, “BENDAMUSTINE COMPOSITIONS AND METHODS THEREFORE” (Innopharma, Inc., priority 2012, published 2013).
Read-outs that look alike come from different tables or passages of the source.

Settings: 0.25 mg/ml in 0.9% sodium chloride

Q: Which results are given for `Cl.Cn1c(CCCC(=O)O)nc2cc(N(CCCl)CCCl)ccc21` [Bendamustine HCl, 1H-benzimidazole-2-butanoic acid, 5-[bis(2-chloro-ethyl)amino]-1 methyl-, monohydrochloride]?
A: time stable (4° C.): 4 days; time stable (23° C.): 0.38 days
